# From patent US20220380306A1, “ASTAXANTHIN ESTERS AND METHODS OF USE THEREOF” (CARDAX,INC., priority 2019, published 2022)
# Key:
# [1] = Hydrolysis of ADMG compared to ADSa in solution or under basic conditions (NaHCO3 / Na2CO3); type: physicochemical; conditions: 16 hours
# Method: The mixture was stirred at room temperature or 50° C. The reaction was monitored by HPLC and LCMS after 16 hours. […] “Byproduct” indicates a material that was formed other than the diester, monoester, or free astaxanthin.
# [2] = Hydrolysis of ADMG compared to ADSa under basic conditions with KOH; type: physicochemical; conditions: KOH 55.6 molar equivalents, room temperature
# Method: KOH was added at 55.6 molar equivalents as a solution in 81:9:10 methanol:dichloromethane:water at room temperature. The solution was analyzed using HPLC over various time points for starting diester (A), hydrolyzed monoester (B) and free astaxanthin (C). Byproduct indicates an impurity formed that is none of A, B, or C.
# [3] = 20 mg/D rosuvastatin vs. placebo; patients who achieved a reduction in CRP<2.0; cited from earlier work
# IL-1β = IL-1β (Homo sapiens, UniProt P01584); conditions: cited from earlier work
# [4] = methotrexate 15-20 mg/week vs. placebo; cited from earlier work
# [5] = subjects with a reduction of CRP<2.0 mg/L (regardless of dose)
# [6] = methanol + saturated aq Na2CO3, rt
# [7] = methanol + saturated aq NaHCO3, 50° C.
# [8] = methanol + saturated aq NaHCO3, rt
compound,measurement,setting,value
"Astaxanthin Sarcosine Diester [ADSa, reference compound]",A (starting diester),"[1]; methanol, no base, rt",72% A
same,Byproduct,"[1]; methanol, no base, rt",16% byproduct
same,A (starting diester),[2]; time 0 hr,91.4%
same,B (hydrolyzed monoester),[2]; time 0 hr,0.5%
same,Byproduct,[2]; time 0 hr,0%
same,C (free astaxanthin),[2]; time 0 hr,0%
same,A (starting diester),[2]; time 0.05 hr,24.0%
same,B (hydrolyzed monoester),[2]; time 0.05 hr,46.8%
same,Byproduct,[2]; time 0.05 hr,1.3%
same,C (free astaxanthin),[2]; time 0.05 hr,22.2%
same,A (starting diester),[2]; time 0.62 hr,0%
same,B (hydrolyzed monoester),[2]; time 0.62 hr,0.5%
same,Byproduct,[2]; time 0.62 hr,3.8%
same,C (free astaxanthin),[2]; time 0.62 hr,90.8%
CC(C)c1nc(N(C)S(C)(=O)=O)nc(-c2ccc(F)cc2)c1/C=C/[C@@H](O)C[C@@H](O)CC(=O)O [rosuvastatin],reduction in vascular events,[3],62%
canakinumab: monoclonal antibody that targets IL-1β,deaths from infection (mostly tuberculosis),IL-1β; active treatment groups vs. placebo,more deaths from infection
same,CRP and IL-6 levels,IL-1β; patients with active treatment,reduction
same,lipids,IL-1β; patients with active treatment,no change
same,reduction in cardiovascular death and all-cause mortality,IL-1β; [5],31%
same,"reduction in the primary end point (composite of myocardial infarction, stroke, or cardiovascular death)",IL-1β; [5],25%
"CC1=C(/C=C/C(C)=C/C=C/C(C)=C/C=C/C=C(C)/C=C/C=C(C)/C=C/C2=C(C)C(=O)[C@@H](OC(=O)CN(C)C)CC2(C)C)C(C)(C)C[C@H](OC(=O)CN(C)C)C1=O [ADMG, Astaxanthin Dimethyl Glycinate Diester]",C (free astaxanthin),"[1]; methanol + saturated aq Na2CO3, 50° C.",92% C
same,B (hydrolyzed monoester),[1]; [6],5% B
same,C (free astaxanthin),[1]; [6],90% C
same,A (starting diester),[1]; [7],33% A
same,B (hydrolyzed monoester),[1]; [7],50% B
same,C (free astaxanthin),[1]; [7],23% C
same,A (starting diester),[1]; [8],64% A
same,B (hydrolyzed monoester),[1]; [8],28% B
same,C (free astaxanthin),[1]; [8],2% C
same,A (starting diester),"[1]; methanol, no base, rt",75% A
same,Byproduct,"[1]; methanol, no base, rt",21% byproduct
same,A (starting diester),[2]; time 0 hr,93.7%
same,B (hydrolyzed monoester),[2]; time 0 hr,0.1%
same,Byproduct,[2]; time 0 hr,0%
same,C (free astaxanthin),[2]; time 0 hr,0%
same,A (starting diester),[2]; time 0.07 hr,86.4%
same,B (hydrolyzed monoester),[2]; time 0.07 hr,7.3%
same,Byproduct,[2]; time 0.07 hr,0%
same,C (free astaxanthin),[2]; time 0.07 hr,0.1%
same,A (starting diester),[2]; time 0.65 hr,36.1%
same,B (hydrolyzed monoester),[2]; time 0.65 hr,44.9%
same,Byproduct,[2]; time 0.65 hr,0.1%
same,C (free astaxanthin),[2]; time 0.65 hr,13.2%
same,A (starting diester),[2]; time 1.23 hr,14.4%
same,B (hydrolyzed monoester),[2]; time 1.23 hr,44.6%
same,Byproduct,[2]; time 1.23 hr,0.8%
same,C (free astaxanthin),[2]; time 1.23 hr,34.6%
same,A (starting diester),[2]; time 1.80 hr,5.5%
same,B (hydrolyzed monoester),[2]; time 1.80 hr,34.2%
same,Byproduct,[2]; time 1.80 hr,1.4%
same,C (free astaxanthin),[2]; time 1.80 hr,53.0%
same,A (starting diester),[2]; time 2.38 hr,2.0%
same,B (hydrolyzed monoester),[2]; time 2.38 hr,23.4%
same,Byproduct,[2]; time 2.38 hr,2.0%
same,C (free astaxanthin),[2]; time 2.38 hr,66.6%
same,A (starting diester),[2]; time 2.97 hr,0.7%
same,B (hydrolyzed monoester),[2]; time 2.97 hr,14.9%
same,Byproduct,[2]; time 2.97 hr,2.7%
same,C (free astaxanthin),[2]; time 2.97 hr,75.4%
same,A (starting diester),[2]; time 3.55 hr,0.2%
same,B (hydrolyzed monoester),[2]; time 3.55 hr,9.2%
same,Byproduct,[2]; time 3.55 hr,3.4%
same,C (free astaxanthin),[2]; time 3.55 hr,80.7%
CN(Cc1cnc2nc(N)nc(N)c2n1)c1ccc(C(=O)N[C@@H](CCC(=O)O)C(=O)O)cc1 [methotrexate],cardiovascular events compared to placebo,[4],did not result in fewer cardiovascular events
same,"levels of IL-1β, IL-6, or CRP",[4],did not reduce
